One block for each compound: values may come before it.
Key:
[1] = target: Serine/threonine-protein kinase B-raf (Homo sapiens, UniProt P15056); assay: Inhibition of b-Raf
[2] = target: Cyclin-dependent kinase 2 (Homo sapiens, UniProt P24941); assay: Inhibition of CDK2
[3] = target: Tyrosine-protein kinase ABL1 (Homo sapiens, UniProt P00519); assay: Inhibition of Abl1
Caco-2 = assay: Antiproliferative activity against human Caco-2 cells; type: functional, cell-based
[4] = Inhibition of RSK
[5] = target: Cyclin-dependent kinase 1 (Homo sapiens, UniProt P06493); assay: Inhibition of CDK1
[6] = target: Tyrosine-protein kinase Fyn (Homo sapiens, UniProt P06241); assay: Inhibition of Fyn
Sequence of Tyrosine-protein kinase Fyn (P06241 whole entry): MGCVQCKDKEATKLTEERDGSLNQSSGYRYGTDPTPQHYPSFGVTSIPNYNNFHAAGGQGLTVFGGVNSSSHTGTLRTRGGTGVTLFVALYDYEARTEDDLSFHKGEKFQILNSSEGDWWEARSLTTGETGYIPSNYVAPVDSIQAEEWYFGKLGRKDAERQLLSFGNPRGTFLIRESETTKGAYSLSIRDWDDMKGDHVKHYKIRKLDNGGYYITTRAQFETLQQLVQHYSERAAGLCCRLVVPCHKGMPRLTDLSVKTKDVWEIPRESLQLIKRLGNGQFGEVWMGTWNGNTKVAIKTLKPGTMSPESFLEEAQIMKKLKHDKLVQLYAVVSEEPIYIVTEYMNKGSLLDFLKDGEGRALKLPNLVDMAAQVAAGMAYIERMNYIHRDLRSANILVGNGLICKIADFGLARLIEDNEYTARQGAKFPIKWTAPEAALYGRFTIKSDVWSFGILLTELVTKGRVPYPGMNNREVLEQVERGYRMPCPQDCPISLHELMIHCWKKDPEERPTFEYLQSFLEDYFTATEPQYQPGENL

[7] = target: Mitogen-activated protein kinase kinase kinase 8 (Homo sapiens, UniProt P41279); assay: Inhibition of TPL2
Sequence of Mitogen-activated protein kinase kinase kinase 8 (P41279 whole entry): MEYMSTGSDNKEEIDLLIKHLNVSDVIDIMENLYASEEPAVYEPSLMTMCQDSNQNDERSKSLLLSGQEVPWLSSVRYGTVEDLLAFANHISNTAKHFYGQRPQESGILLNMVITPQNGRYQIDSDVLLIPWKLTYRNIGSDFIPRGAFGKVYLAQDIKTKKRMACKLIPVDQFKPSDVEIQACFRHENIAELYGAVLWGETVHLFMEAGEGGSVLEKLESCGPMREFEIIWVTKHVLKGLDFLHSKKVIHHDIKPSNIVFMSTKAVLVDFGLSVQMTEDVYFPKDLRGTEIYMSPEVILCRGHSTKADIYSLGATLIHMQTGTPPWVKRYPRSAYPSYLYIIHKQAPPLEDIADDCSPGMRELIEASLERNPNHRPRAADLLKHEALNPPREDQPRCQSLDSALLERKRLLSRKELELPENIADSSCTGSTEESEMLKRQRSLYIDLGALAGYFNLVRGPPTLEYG

[8] = target: 3-phosphoinositide-dependent protein kinase 1 (Homo sapiens, UniProt O15530); assay: Inhibition of PDK1
Sequence of 3-phosphoinositide-dependent protein kinase 1 (O15530 whole entry): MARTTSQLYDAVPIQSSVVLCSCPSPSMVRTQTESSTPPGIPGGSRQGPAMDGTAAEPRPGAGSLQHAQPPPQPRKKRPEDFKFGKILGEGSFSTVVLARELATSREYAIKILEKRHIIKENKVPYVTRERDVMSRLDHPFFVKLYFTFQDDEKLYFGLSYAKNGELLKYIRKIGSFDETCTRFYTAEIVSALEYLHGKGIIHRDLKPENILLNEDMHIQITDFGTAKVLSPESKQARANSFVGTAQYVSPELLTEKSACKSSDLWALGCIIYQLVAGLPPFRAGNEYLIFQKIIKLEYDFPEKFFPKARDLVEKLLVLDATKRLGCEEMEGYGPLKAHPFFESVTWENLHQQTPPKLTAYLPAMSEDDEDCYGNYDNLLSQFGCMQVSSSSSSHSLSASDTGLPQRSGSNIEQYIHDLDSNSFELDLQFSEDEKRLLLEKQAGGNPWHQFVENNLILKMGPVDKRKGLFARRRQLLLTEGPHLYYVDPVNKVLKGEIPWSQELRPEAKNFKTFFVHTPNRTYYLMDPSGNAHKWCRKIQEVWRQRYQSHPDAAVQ

[9] = target: Mitogen-activated protein kinase 1 (Homo sapiens, UniProt P28482); assay: Inhibition of ERK2
[10] = target: Rho-associated protein kinase 1 (Homo sapiens, UniProt Q13464); assay: Inhibition of ROCK1
[11] = target: MAP kinase-activated protein kinase 2 (Homo sapiens, UniProt P49137); assay: Inhibition of MK2
[12] = Inhibition of PKA
[13] = target: Mitogen-activated protein kinase 14 (Homo sapiens, UniProt Q16539); assay: Inhibition of P38alpha
[14] = target: Phosphatidylinositol 4,5-bisphosphate 3-kinase catalytic subunit alpha isoform (Homo sapiens, UniProt P42336); assay: Inhibition of PI3Kalpha
[15] = target: Tyrosine-protein kinase Lck (Homo sapiens, UniProt P06239); assay: Inhibition of LCK
Sequence of Tyrosine-protein kinase Lck (P06239 whole entry): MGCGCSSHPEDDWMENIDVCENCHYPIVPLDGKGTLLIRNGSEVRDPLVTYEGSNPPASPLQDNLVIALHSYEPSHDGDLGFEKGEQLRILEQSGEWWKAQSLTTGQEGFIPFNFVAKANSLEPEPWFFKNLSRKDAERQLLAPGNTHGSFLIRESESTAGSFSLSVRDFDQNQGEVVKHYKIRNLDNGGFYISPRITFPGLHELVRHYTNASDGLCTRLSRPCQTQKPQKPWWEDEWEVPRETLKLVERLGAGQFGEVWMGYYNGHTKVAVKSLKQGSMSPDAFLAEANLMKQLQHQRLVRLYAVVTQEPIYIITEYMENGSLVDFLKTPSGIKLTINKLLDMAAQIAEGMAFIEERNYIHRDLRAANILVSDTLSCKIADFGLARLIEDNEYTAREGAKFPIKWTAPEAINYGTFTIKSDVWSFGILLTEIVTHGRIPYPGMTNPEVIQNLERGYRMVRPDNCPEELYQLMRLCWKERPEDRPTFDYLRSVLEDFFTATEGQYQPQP

[16] = target: Inhibitor of nuclear factor kappa-B kinase subunit beta (Homo sapiens, UniProt O14920); assay: Inhibition of IKK-beta
[17] = Inhibition of p70S6K
[18] = Antiproliferative activity against human WM266.4 cells; type: functional, cell-based; conditions: WM 266-4
[19] = target: Protein kinase C beta type (Homo sapiens, UniProt P05771); assay: Inhibition of PKCbeta
LoVo = assay: Antiproliferative activity against human LoVo cells; type: functional, cell-based
[20] = target: Serine/threonine-protein kinase mTOR (Homo sapiens, UniProt P42345); assay: Inhibition of mTOR
[21] = target: Mitogen-activated protein kinase 8 (Homo sapiens, UniProt P45983); assay: Inhibition of JNK1
[22] = Permeability at pH 7.4 by PAMPA; type: ADME; conditions: read-out: permeability
[23] = Inhibition of CK1gamma
HT-29 = assay: Antiproliferative activity against human HT-29 cells; type: functional, cell-based
[24] = target: Protein kinase C alpha type (Homo sapiens, UniProt P17252); assay: Inhibition of PKCalpha
[25] = target: Proto-oncogene tyrosine-protein kinase Src (Homo sapiens, UniProt P12931); assay: Inhibition of Src
Sequence of Proto-oncogene tyrosine-protein kinase Src (P12931 2-536 limits assumed): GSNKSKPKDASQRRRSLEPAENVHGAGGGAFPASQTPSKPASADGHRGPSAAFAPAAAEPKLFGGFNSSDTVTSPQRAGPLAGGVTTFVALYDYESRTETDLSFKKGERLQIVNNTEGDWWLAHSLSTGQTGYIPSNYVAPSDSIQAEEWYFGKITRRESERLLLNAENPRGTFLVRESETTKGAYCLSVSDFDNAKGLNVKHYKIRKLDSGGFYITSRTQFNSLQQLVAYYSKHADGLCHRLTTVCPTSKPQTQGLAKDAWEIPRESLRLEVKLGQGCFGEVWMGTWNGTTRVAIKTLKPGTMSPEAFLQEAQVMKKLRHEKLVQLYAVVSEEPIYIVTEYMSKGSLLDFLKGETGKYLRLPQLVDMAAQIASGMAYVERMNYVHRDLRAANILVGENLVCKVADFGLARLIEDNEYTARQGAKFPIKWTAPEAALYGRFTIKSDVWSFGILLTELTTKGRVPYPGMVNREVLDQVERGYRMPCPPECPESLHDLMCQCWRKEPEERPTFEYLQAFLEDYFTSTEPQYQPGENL

[26] = target: Mitogen-activated protein kinase kinase kinase kinase 2 (Homo sapiens, UniProt Q12851); assay: Inhibition of GCK
[27] = target: Serine/threonine-protein kinase PLK1 (Homo sapiens, UniProt P53350); assay: Inhibition of PLK1
[28] = target: Insulin-like growth factor 1 receptor (Homo sapiens, UniProt P08069); assay: Inhibition of IGFR1
[29] = Half life in rat microsomes; type: ADME, Microsome
[30] = target: Serine/threonine-protein kinase Chk1 (Homo sapiens, UniProt O14757); assay: Inhibition of CHK1
Sequence of Serine/threonine-protein kinase Chk1 (O14757 whole entry): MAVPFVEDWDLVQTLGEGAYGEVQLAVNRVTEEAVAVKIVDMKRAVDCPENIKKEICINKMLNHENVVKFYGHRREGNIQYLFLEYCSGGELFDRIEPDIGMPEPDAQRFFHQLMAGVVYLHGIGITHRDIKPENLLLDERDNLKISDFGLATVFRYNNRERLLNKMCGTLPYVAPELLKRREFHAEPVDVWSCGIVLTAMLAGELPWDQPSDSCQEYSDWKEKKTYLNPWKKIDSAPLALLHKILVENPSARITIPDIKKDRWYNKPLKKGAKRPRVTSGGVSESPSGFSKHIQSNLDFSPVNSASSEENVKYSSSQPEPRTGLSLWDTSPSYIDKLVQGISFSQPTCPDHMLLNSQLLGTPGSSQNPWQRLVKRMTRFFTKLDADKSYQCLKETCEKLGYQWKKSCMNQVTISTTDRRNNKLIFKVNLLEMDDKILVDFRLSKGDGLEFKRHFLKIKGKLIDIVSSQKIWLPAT

BXPC-3 = assay: Antiproliferative activity against human BxPC3 cells; type: functional, cell-based
[31] = target: RAC-alpha serine/threonine-protein kinase (Homo sapiens, UniProt P31749); assay: Inhibition of PKBalpha
A-375 = assay: Antiproliferative activity against human A375 cells; type: functional, cell-based
[32] = Metabolic stability in nude mouse microsomes assessed as half life; type: ADME, Microsome

Sequence of Serine/threonine-protein kinase B-raf (P15056 whole entry): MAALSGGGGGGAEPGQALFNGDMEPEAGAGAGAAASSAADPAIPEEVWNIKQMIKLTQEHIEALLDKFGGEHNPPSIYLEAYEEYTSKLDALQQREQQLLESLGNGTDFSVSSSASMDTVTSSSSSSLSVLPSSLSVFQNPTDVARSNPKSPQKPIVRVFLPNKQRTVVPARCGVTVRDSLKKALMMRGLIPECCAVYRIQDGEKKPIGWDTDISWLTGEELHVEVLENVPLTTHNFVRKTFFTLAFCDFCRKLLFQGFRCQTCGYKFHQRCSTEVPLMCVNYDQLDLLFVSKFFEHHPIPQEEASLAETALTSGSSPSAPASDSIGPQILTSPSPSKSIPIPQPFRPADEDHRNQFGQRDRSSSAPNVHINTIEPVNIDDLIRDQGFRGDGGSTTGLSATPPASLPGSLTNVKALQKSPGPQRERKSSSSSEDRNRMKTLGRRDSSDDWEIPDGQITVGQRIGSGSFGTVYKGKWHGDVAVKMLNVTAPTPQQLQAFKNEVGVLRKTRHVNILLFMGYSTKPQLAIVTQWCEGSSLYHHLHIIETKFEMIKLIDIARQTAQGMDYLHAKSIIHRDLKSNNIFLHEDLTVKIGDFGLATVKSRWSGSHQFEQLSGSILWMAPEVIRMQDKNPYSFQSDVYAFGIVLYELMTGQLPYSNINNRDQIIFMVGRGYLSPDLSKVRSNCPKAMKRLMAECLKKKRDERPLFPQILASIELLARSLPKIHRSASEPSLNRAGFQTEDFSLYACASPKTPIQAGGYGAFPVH
Sequence of Tyrosine-protein kinase ABL1 (P00519 whole entry): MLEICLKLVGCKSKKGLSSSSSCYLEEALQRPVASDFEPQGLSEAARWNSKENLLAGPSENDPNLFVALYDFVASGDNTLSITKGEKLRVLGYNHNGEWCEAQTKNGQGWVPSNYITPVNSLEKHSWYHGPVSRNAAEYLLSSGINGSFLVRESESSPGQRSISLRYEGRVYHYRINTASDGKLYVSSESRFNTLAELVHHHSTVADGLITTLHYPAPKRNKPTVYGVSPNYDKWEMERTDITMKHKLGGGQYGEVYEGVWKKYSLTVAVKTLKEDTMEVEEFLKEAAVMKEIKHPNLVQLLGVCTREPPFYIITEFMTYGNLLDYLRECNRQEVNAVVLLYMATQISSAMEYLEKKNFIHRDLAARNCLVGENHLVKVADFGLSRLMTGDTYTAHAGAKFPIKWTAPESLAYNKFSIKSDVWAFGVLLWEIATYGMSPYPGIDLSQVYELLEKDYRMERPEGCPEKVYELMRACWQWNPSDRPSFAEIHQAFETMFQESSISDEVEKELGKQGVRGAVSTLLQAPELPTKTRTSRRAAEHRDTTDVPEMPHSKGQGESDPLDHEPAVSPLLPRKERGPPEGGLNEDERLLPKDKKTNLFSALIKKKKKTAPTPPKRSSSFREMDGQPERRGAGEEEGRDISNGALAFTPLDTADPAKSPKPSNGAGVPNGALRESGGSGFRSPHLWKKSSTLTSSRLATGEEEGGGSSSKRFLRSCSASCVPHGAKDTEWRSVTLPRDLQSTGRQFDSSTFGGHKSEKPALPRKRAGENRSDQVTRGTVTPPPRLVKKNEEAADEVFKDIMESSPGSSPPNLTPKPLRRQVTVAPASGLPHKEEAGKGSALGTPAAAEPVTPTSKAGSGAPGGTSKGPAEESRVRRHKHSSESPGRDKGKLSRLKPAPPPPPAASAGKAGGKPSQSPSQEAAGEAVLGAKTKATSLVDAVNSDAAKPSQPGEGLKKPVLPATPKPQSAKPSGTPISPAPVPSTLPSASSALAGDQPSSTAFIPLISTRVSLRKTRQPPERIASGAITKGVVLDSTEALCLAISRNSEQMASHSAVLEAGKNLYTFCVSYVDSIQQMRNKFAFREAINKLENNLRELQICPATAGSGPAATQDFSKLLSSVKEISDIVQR

IC50 [1]: 0.1 µM
SMILES: Cn1cncc1-c1cc2nccc(-c3cccc(NC(=O)c4cccc(C(F)(F)F)c4)c3)n2n1

IC50 [1]: 1.6 µM
SMILES: O=C(Nc1cccc(-c2ccnc3cc(-c4cnc[nH]4)nn23)c1)c1cccc(C(F)(F)F)c1

IC50 [1]: 0.66 µM
SMILES: O=C(Nc1cccc(-c2ccnc3cc(-c4ccncc4)nn23)c1)c1ccc(Cl)c(Cl)c1

IC50 [1]: > 10 µM
SMILES: O=C(Nc1cccc(-c2ccnc3cc(-c4cccnc4)nn23)c1)c1cccc(C(F)(F)F)c1

Further lines, the compound ahead of its results:

SMILES: O=C(Nc1cccc(-c2ccnc3cc(-c4ccncc4)nn23)c1)c1cccc(C(F)(F)F)c1
IC50 [2]: > 50 µM | IC50 [3]: > 50 µM | IC50 (Caco-2): 2.6 µM | IC50 [4]: > 50 µM | IC50 [5]: > 50 µM | IC50 [6]: > 50 µM | IC50 [7]: > 50 µM | IC50 [8]: > 50 µM | IC50 [9]: > 50 µM | IC50 [10]: > 50 µM | IC50 [11]: > 50 µM | IC50 [12]: > 50 µM | IC50 [13]: > 50 µM | IC50 [14]: > 50 µM | IC50 [15]: > 50 µM | IC50 [16]: > 50 µM | IC50 [17]: > 50 µM | IC50 [18]: 3.5 µM | IC50 [19]: > 50 µM | IC50 (LoVo): 0.4 µM | IC50 [20]: > 50 µM | IC50 [21]: > 50 µM | Papp [22]: 251 ×10⁻⁶ cm/s | IC50 [23]: > 50 µM | IC50 (HT-29): 0.35 µM | IC50 [24]: > 50 µM | IC50 [25]: > 50 µM | IC50 [26]: > 50 µM | IC50 [27]: > 50 µM | IC50 [28]: > 50 µM | half-life [29]: > 30 min | IC50 [30]: > 50 µM | IC50 (BXPC-3): 3.1 µM | IC50 [31]: > 50 µM | IC50 (A-375): 0.28 µM | half-life [32]: 24 min

SMILES: O=C(Nc1cccc(-c2ccnc3cc(-c4ccncc4)nn23)c1)c1ccc(Cl)c(C(F)(F)F)c1
IC50 [1]: 0.06 µM

SMILES: O=C(Nc1cccc(-c2ccnc3cc(-c4ccnc(NCCCN5CCOCC5)c4)nn23)c1)c1cccc(C(F)(F)F)c1
IC50 [1]: 0.13 µM

SMILES: O=C(Nc1cccc(-c2ccnc3cc(-c4ccnc(NCCCN5CCCC5=O)c4)nn23)c1)c1cccc(C(F)(F)F)c1
IC50 [1]: 0.11 µM

SMILES: O=C(Nc1cccc(-c2ccnc3cc(-c4ccnc(NCCCc5ncc[nH]5)c4)nn23)c1)c1cccc(C(F)(F)F)c1
IC50 [1]: 0.066 µM

SMILES: O=C(Nc1cccc(-c2ccnc3cc(-c4ccncc4)nn23)c1)Nc1ccc(Cl)c(C(F)(F)F)c1
IC50 [1]: 0.04 µM

From ChEMBL document CHEMBL1156255, “Hit to lead optimization of pyrazolo[1,5-a]pyrimidines as B-Raf kinase inhibitors” (Bioorg Med Chem Lett, 2009)
